“And” between values parts separate entries of the source, which are not always exact repeats. Equal entries are not always repeated.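 Following 48 hours of exposure in 96-well plates, responses at five concentrations were used to interpolate endpoints linearly. GI50: concentration for 50% inhibition of growth. The concentration for full growth arrest is given as TGI.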

The text below walks through data of PubChem BioAssay (NCI).

Common to all, as to assay: NCI-60 cell line screen, 48 h
The subject of experiment [1] is COLO 205 colon.
Experiment [2] concerns SF-268 CNS.
In experiment [3] the test system is OVCAR-3 ovarian.
Experiment [4] has as its system CCRF-CEM leukemia.
The test system of experiment [5] is KM12 colon.
Experiment [6] has as its system NCI-H226 lung.
The subject of experiment [7] is NCI-H460 lung.
Experiment [8] deals with SNB-75 CNS.
Experiment [9] relates to OVCAR-4 ovarian.
Experiment [10] deals with CAKI-1 renal.
The subject of experiment [11] is OVCAR-8 ovarian.
The test system of experiment [12] is A498 renal.
The test system of experiment [13] is HOP-62 NSCLC.
Experiment [14] relates to EKVX NSCLC.
In experiment [15] the test system is DU-145 prostate.

`[N-]=[N+]=NC1=C(N=[N+]=[N-])c2cccc3cccc(c23)C1=O`: the TGI in experiment [1], in experiment [2], in experiment [3], in experiment [4], in experiment [5] and in [6] was > 100 µM throughout. Moreover, the TGI in experiment [7], in experiment [8], in [9], in experiment [10], in [11] and in experiment [12] was > 100 µM each time. Also, the TGI in experiment [13] and in experiment [14] was > 100 µM each time.

Take `COc1cc(/C=C2\N=C(c3ccccc3)N(/N=C/c3cc4cc(C)ccc4nc3Cl)C2=O)ccc1O`: the TGI in experiment [1] was > 100 µM; in experiment [2], > 100 µM; in experiment [15], > 100 µM; in experiment [3], > 100 µM; in experiment [4], 36 µM; in experiment [5], > 100 µM. The TGI is > 100 µM in [7]; 83.9 µM in [8]; > 100 µM in [9]; > 100 µM in experiment [10]; > 100 µM in experiment [11]; 55.3 µM in experiment [12]. Moreover, the TGI in experiment [13] and in experiment [14] was > 100 µM in each case.

`c1ccc2c(-c3ccnc(-c4c[nH]c5ccccc45)n3)c[nH]c2c1`: the TGI was > 100 µM in experiment [1]; > 100 µM in [2]; 44.5 µM in experiment [15]; > 100 µM in experiment [3]; 3.32 µM in experiment [4]; 23.9 µM in [5]. The TGI was > 100 µM in experiment [7]; > 100 µM in [9]; 74.6 µM in experiment [10]; 22.9 µM in [11]; 5.33 µM in experiment [12]; 28.7 µM in [13]. In experiment [14], the TGI is > 100 µM.

With `CCOP(=O)(OCC)OC1CC(n2cnc3c(N(CC)CC)ncnc32)OC1CO[Si](C)(C)C(C)(C)C` (stereo not drawn), the TGI in experiment [1] was determined as 32.8 µM; in experiment [2] it was 31.5 µM; in [15], 28.8 µM; in [3], 44.9 µM; in [4], 41.2 µM; in experiment [5], 38.6 µM. For the same molecule, the TGI in experiment [6] was determined as 39.3 µM; in experiment [7], 32 µM; in experiment [8], 23.3 µM; in experiment [9], 29.5 µM; in experiment [10], 31.5 µM; in [11] it was 56.4 µM. Moreover, the TGI in experiment [13] was determined as 34 µM; in [14], 20.5 µM.

As for `CC(C)(C)OC(=O)N1CCC[C@H]1CSC[C@@H]1CCCN1C(=O)OC(C)(C)C`, the TGI in [1] is 30.5 µM; in experiment [2] it was > 100 µM; in experiment [15], > 100 µM; in [3], 90.3 µM; in [4], 44.8 µM; in experiment [5], 48.2 µM. Besides, the TGI in experiment [7] is > 100 µM; in experiment [8], 77.2 µM; in experiment [9], > 100 µM; in [10], > 100 µM; in [11], > 100 µM; in experiment [13], > 100 µM. The TGI in [14] is > 100 µM.

`CCOC(=O)C(NC(=O)Nc1ccccc1F)(OC)C(F)(F)F` (stereo not drawn): the TGI in experiment [1], in [2], in [4], in [8], in [10] and in experiment [11] was > 100 µM each time. Also, the TGI in [12] and in [14] was > 100 µM throughout.

For the molecule `N=C1SCCS1`, the TGI in experiment [1], in experiment [2], in [3], in experiment [4], in experiment [5] and in experiment [6] was > 100 µM throughout. Moreover, the TGI in [7], in experiment [8], in [9], in [10], in experiment [11] and in experiment [13] was > 100 µM in each case. In addition, in experiment [14], the TGI was > 100 µM.

With `COc1cc(-c2c(C(C)=O)c(-c3ccccc3)n(C3OC(COC(C)=O)C(OC(C)=O)C(OC(C)=O)C3OC(C)=O)c(=S)c2C#N)ccc1O` (stereo not drawn), the TGI in experiment [1], in [2], in experiment [15], in [3], in [4] and in experiment [5] was > 100 µM throughout. Further, the TGI in experiment [7], in experiment [9], in experiment [10], in [12], in experiment [13] and in experiment [14] was > 100 µM each time. In addition, the GI50 in experiment [3] is 44.1 µM and > 100 µM.

As for `COC1(CCO)CC=CCC1(CCO)OC` (stereo not drawn), the TGI in experiment [1], in experiment [2], in experiment [15], in [3], in [4] and in [5] was > 100 µM in each case. The TGI in [6], in [7], in [8], in experiment [9], in experiment [10] and in [11] was > 100 µM throughout. The TGI in experiment [13] and in experiment [14] was > 100 µM in each case.

For `CSC(=S)Nc1cc(C)ccn1`, the TGI in experiment [1], in experiment [2], in experiment [15], in [3], in experiment [4] and in [5] was > 100 µM each time. Besides, the TGI in experiment [6], in experiment [7], in experiment [8], in [9], in experiment [10] and in experiment [11] was > 100 µM each time. The TGI in experiment [13] and in [14] was > 100 µM in each case.

On to `Cc1[nH]c2ncn(N)c(=N)c2c1Cc1ccccc1`, for which the TGI in [1], in experiment [3], in [4], in experiment [5], in [6] and in experiment [8] was > 100 µM in each case. The TGI in [9], in experiment [10], in experiment [11], in [12], in [13] and in experiment [14] was > 100 µM throughout.

Turning to `Brc1ccc(C2(N3CCCCC3)CCCCC2)s1`, the TGI is > 100 µM in experiment [2]; > 100 µM in [15]; > 100 µM in [3]; 39.2 µM in experiment [4]; > 100 µM in experiment [5]; 84.8 µM in experiment [7]. Moreover, the TGI in experiment [9], in [10], in experiment [12], in [13] and in experiment [14] was > 100 µM each time.

Take `CCC/C(Cl)=N/OC(=O)Nc1cccc(F)c1`: the TGI in experiment [1] was 3.98 µM; in [2], > 54.4 µM; in experiment [15], 31.6 µM; in experiment [3], 6.6 µM; in experiment [5], 31.2 µM; in experiment [6], 27.9 µM. The TGI in [7] is 39 µM; in experiment [8], 28.3 µM; in experiment [9] it was 25.4 µM; in experiment [10], 7.77 µM; in [11] it was 37.4 µM; in [13] it was 29.9 µM. Moreover, the TGI in [14] turned out to be 12.2 µM.

Regarding `CC[n+]1c(/C=C/c2ccc(N(CCCl)CCCl)cc2)ccc2cc(Br)ccc21`, the TGI in experiment [1] amounted to 128 µM; in [3] it was 2.22 µM; in experiment [5], 3.3 µM; in [6] it was 7.48 µM; in experiment [7], 11.4 µM; in [8] it was 0.936 µM. Besides, the TGI in experiment [9] worked out at 7.98 µM; in experiment [11], 10.4 µM; in experiment [12], 6900 µM. The GI50 in experiment [4] was 304 µM; in [10], 1650 µM; in experiment [13], 954 µM; in [14], 1060 µM.

Take `O=C(O)C1CCCCN1CCc1c[nH]c2ccccc12` (stereo not drawn): the TGI in experiment [1], in experiment [2], in [15], in experiment [3], in experiment [4] and in experiment [5] was > 100 µM in each case. The TGI in experiment [6], in experiment [7], in experiment [8], in experiment [9], in experiment [10] and in experiment [11] was > 100 µM throughout. The TGI in experiment [13] and in experiment [14] was > 100 µM throughout.

For `O=C1c2cc([N+](=O)[O-])cnc2S(=O)(=O)N1c1ccc(Oc2ccccc2)cc1`, the TGI in experiment [1], in [15], in [3], in experiment [4], in experiment [5] and in [6] was > 100 µM each time. Also, the TGI in experiment [7], in experiment [8], in [9], in [11], in experiment [13] and in experiment [14] was > 100 µM each time.

On to `CC(=O)NC1C(OCc2ccccc2)OC(CO)C(O)C1OC(C)C(=O)NC(C(=O)NC(CCC(=O)Nc1ccc2c(c1)CN1C(=O)c3ccccc3C1=N2)C(N)=O)C(C)C` (stereo not drawn), for which the TGI in experiment [1], in experiment [2], in [15], in [3], in experiment [4] and in experiment [5] was > 100 µM in each case. The TGI in experiment [7], in [8], in experiment [9], in experiment [10], in [11] and in experiment [12] was > 100 µM in each case. Besides, the TGI in experiment [13] and in experiment [14] was > 100 µM in each case.

In the case of `COc1ccc2[nH]c3c(c2c1)CCc1ccccc1-3`, the TGI in experiment [1], in experiment [2], in experiment [15], in experiment [3], in experiment [4] and in experiment [5] was > 100 µM each time. For the same molecule, the TGI was > 100 µM in experiment [6]; > 100 µM in experiment [7]; 75.2 µM in experiment [8]; > 100 µM in [9]; > 100 µM in experiment [10]; > 100 µM in [11]. Also, the TGI in experiment [13] and in experiment [14] was > 100 µM in each case.

As to `CC1(c2nc3ccccc3[nH]2)CCC(CO)C(C)(C)O1` (stereo not drawn), the TGI in experiment [1], in experiment [2], in [15], in experiment [3], in experiment [4] and in [5] was > 100 µM each time. The TGI in experiment [6], in experiment [8], in experiment [9], in [10], in [11] and in [13] was > 100 µM in each case. In addition, the TGI in experiment [14] is > 100 µM.

Take `CN(N=O)C(N)=NC(=O)c1ccccc1`: the TGI in experiment [1], in [2], in [3], in experiment [4], in experiment [5] and in [6] was > 100 µM each time. In addition, the TGI in [7] is 40.6 µM; in [8], > 100 µM; in experiment [9], > 100 µM; in [10] it was > 100 µM; in [11] it was > 100 µM; in experiment [12], > 100 µM. The TGI in [13] and in experiment [14] was > 100 µM in each case.

As for `CCCN=C1S/C(=C/c2ccc(OC)c(OC)c2)C(=O)N1c1ccccc1`, the TGI was > 100 µM in experiment [1]; > 100 µM in experiment [2]; 43.3 µM in [3]; > 100 µM in [4]; > 100 µM in experiment [5]; 95 µM in experiment [6]. The TGI in experiment [7] is > 100 µM; in experiment [9], 80.6 µM; in experiment [10], > 100 µM; in [11], > 100 µM; in experiment [12] it was 58.2 µM; in experiment [13] it was 15.2 µM. Besides, the TGI in experiment [14] is > 100 µM.
